Test [1] has as its system Candida albicans ATCC 24433. Kind of test: MIC by broth dilution, CA01. Type of test: cell-based. The settings on record: RPMI 1640 pH 7.0, 48 hours; for MIC50: Candida albicans, ATCC24433, concentration exhibiting more than 50% inhibition vs positive control, read-out: MIC50 obtained by broth dilution method, MIC. Here is the method:
(§1) The compounds of Formula (1a) and (1b) were tested for antifungal activity against various strains of Candida(CA 01: Candida albicans ATCC 24433, CA 02: C. albicans ATCC 10231, CA 03: C. albicans ATCC 2091, CA 04: C. albicans ATCC 90028, CG 01: C. glabrata ATCC 90030, CK 01: C. Krusei ATCC 6258, CT 01: C. tropicalis ATCC 750). In vitro evaluation of antifungal activity was performed by determining the minimum inhibitory concentration (MIC) following standard broth dilution methods (CLSI: Reference method for broth dilution antifungal susceptibility testing of yeasts; Approved standard, second edition M27-A2, 2002; CLSI: Reference method for broth dilution antifungal susceptibility testing of filamentous fungi; […]. Known anti-fungal agents like Fluconazole and Amphotericin-B were used as standards. End points were determined after 48 hours visually and by using spectrophotometer wherever necessary. The activity parameters are enumerated in Table 10: […]
A general note: In broth dilution the organism is exposed to a series of concentrations in liquid medium.

Test [2] concerns C. albicans ATCC 10231. Nature of the test: MIC by broth dilution, CA02. It is filed as cell-based, Candida albicans. To be noted: RPMI 1640 pH 7.0, 48 hours; for MIC50: Candida albicans, ATCC10231, concentration exhibiting more than 50% inhibition vs positive control, read-out: MIC50 obtained by broth dilution method, MIC. Here is the method: as §1
Test [3] deals with C. albicans ATCC 2091. Kind of test: MIC by broth dilution, CA03. Type of test: cell-based, Candida albicans. The settings on record: RPMI 1640 pH 7.0, 48 hours; for MIC50: Candida albicans, ATCC2091, concentration exhibiting more than 50% inhibition vs positive control, read-out: MIC50 obtained by broth dilution method, MIC. Here is the method: as §1
In test [4] the test system is C. albicans ATCC 90028. Nature of the test: MIC by broth dilution, CA04. To be noted: RPMI 1640 pH 7.0, 48 hours; for MIC50: Candida albicans, ATCC90028, concentration exhibiting more than 50% inhibition vs positive control, read-out: MIC50 obtained by broth dilution method, MIC. Type of test: cell-based, Candida albicans. Here is the method:
as §1

The subject of test [5] is C. glabrata ATCC 90030. Nature of the test: MIC by broth dilution, CG01. Type of test: cell-based. The settings on record: RPMI 1640 pH 7.0, 48 hours; for MIC50: Nakaseomyces glabratus, ATCC90030, concentration exhibiting more than 50% inhibition vs positive control, read-out: MIC50 obtained by broth dilution method, MIC. Here is the method: as §1
Test [6] has as its system C. Krusei ATCC 6258. Kind of test: MIC by broth dilution, CK01. To be noted: RPMI 1640 pH 7.0, 48 hours; for MIC50: Pichia kudriavzevii, ATCC6258, concentration exhibiting more than 50% inhibition vs positive control, read-out: MIC50 obtained by broth dilution method, MIC. It is filed as cell-based. Here is the method: as §1
Test [7] has as its system C. tropicalis ATCC 750. Kind of test: MIC by broth dilution, CT01. It is filed as cell-based. The settings on record: RPMI 1640 pH 7.0, 48 hours; for MIC50: Candida tropicalis, ATCC750, concentration exhibiting more than 50% inhibition vs positive control, read-out: MIC50 obtained by broth dilution method, MIC. Here is the method: as §1
Setting [8] is: concentration exhibiting complete inhibition.

≈ marks a conversion by molar mass, not a printed value.

Turning to `C[C@@H]1[C@H](O)[C@@H](C)/C=C/C=C/C=C/C=C/C=C/C=C/C=C/[C@H](O[C@@H]2O[C@H](C)[C@@H](O)[C@H](N)[C@@H]2O)C[C@@H]2O[C@](O)(C[C@@H](O)C[C@@H](O)[C@H](O)CC[C@@H](O)C[C@@H](O)CC(=O)O[C@H]1C)C[C@H](O)[C@H]2C(=O)O` [AMB, Amphotericin-B, reference compound], the “MIC in μg/ml (Amphotericin B)” value came to 0.25 µg/mL (≈ 0.271 µM) in test [1] (setting [8]); 0.5 µg/mL (≈ 0.541 µM) in test [2] (setting [8]); 0.5 µg/mL (≈ 0.541 µM) in test [3] (setting [8]); 0.5 µg/mL (≈ 0.541 µM) in test [4] (setting [8]); 0.25 µg/mL (≈ 0.271 µM) in test [5] (setting [8]); 0.5 µg/mL (≈ 0.541 µM) in test [6] (setting [8]). In addition, the “MIC in μg/ml (Amphotericin B)” value in test [7] (setting [8]) came to 0.5 µg/mL (≈ 0.541 µM).

Broadly, the MIC50 is the lowest concentration that inhibits either 50% of growth or 50% of the strains tested, depending on the study. For `OC(Cn1cncn1)(Cn1cncn1)c1ccc(F)cc1F` [FLU, Fluconazole], the MIC50 amounted to 1 µg/mL (≈ 3.27 µM) in test [1]; 1 µg/mL (≈ 3.27 µM) in test [2]; 0.5 µg/mL (≈ 1.63 µM) in test [3]; 0.5 µg/mL (≈ 1.63 µM) in test [4]; 4 µg/mL (≈ 13.1 µM) in test [5]; 64 µg/mL (≈ 209 µM) in test [6]. In test [7], the MIC50 turned out to be 2 µg/mL (≈ 6.53 µM).

With `CCCCCc1cc2c(=O)n(C[C@@](O)(Cn3cncn3)c3ccc(F)cc3F)cnc2s1` [Formula 1a-02, (R)-3-[2-(2,4-difluorophenyl)-2-hydroxy-3-(1H-1,2,4-triazol-1-yl)propyl]-6-n-pentylthieno[2,3-d]pyrimidin-4(3H)-one], the MIC50 in test [1] was 4 µg/mL; in test [2], 8 µg/mL; in test [3], 8 µg/mL; in test [4], 4 µg/mL; in test [5], 4 µg/mL; in test [6], above 16 µg/mL. Also, the MIC50 in test [7] worked out at 16 µg/mL.

Regarding `CCCCCCc1cc2c(=O)n(C[C@](O)(Cn3cncn3)c3ccc(F)cc3F)cnc2s1` [Formula 1b-01, (S)-3-[2-(2,4-Difluorophenyl)-2-hydroxy-3-[1,2,4]triazol-1-yl-propyl]-6-(n-hexyl)-thieno[2,3-d]pyrimidin-4(3H)-one], the MIC50 in test [1] came out at 0.06 µg/mL; in test [2] it was 0.12 µg/mL; in test [3], 0.25 µg/mL; in test [4], 0.12 µg/mL; in test [5], 0.12 µg/mL; in test [6] it was 1 µg/mL. The MIC50 in test [7] was found to be 0.25 µg/mL.

Turning to `CCCCCc1cc2c(=O)n(C[C@](O)(Cn3cncn3)c3ccc(F)cc3F)cnc2s1` [Formula 1b-02, (S)-3-[2-(2,4-difluorophenyl)-2-hydroxy-3-(1H-1,2,4-triazol-1-yl)propyl]-6-n-pentylthieno[2,3-d]pyrimidin-4(3H)-one], the MIC50 in test [1] was 0.03 µg/mL; in test [2], 0.12 µg/mL; in test [3], 0.12 µg/mL; in test [4], 0.03 µg/mL; in test [5], 0.06 µg/mL; in test [6], 1 µg/mL. In test [7], the MIC50 came to 0.06 µg/mL.

Take `CCCCCCCc1cc2c(=O)n(C[C@](O)(Cn3cncn3)c3ccc(F)cc3F)cnc2s1` [Formula 1b-03, (S)-3-[2-(2,4-Difluorophenyl)-2-hydroxy-3-[1,2,4]triazol-1-yl-propyl]-6-n-heptyl-thieno[2,3-d]pyrimidin-4(3H)-one]: the MIC50 in test [1] is 0.12 µg/mL; in test [2], 0.5 µg/mL; in test [3], 0.5 µg/mL; in test [4], 0.25 µg/mL; in test [5], 0.25 µg/mL; in test [6] it was 1 µg/mL. The MIC50 in test [7] came to 1 µg/mL.

Take `CCCc1cc2c(=O)n(C[C@](O)(Cn3cncn3)c3ccc(F)cc3F)cnc2s1` [Formula 1b-04, (S)-3-[2-(2,4-Difluorophenyl)-2-hydroxy-3-[1,2,4]triazol-1-yl-propyl]-6-(n-propyl)-thieno[2,3-d]pyrimidin-4(3H)-one]: the MIC50 in test [1] turned out to be 0.03 µg/mL; in test [2], 0.06 µg/mL; in test [3], 0.03 µg/mL; in test [4], 0.03 µg/mL; in test [5], 0.03 µg/mL; in test [6], 1 µg/mL. For the same compound, in test [7], the MIC50 stood at 0.06 µg/mL.

These data come from US9181269B2, “Enantiomers of fluconazole analogues containing thieno-[2,-3-D]pyrimidin-4(3H)-one moiety as antifungal agents” (FDC Limited, priority 2011, dated 2015).
